According to the supplement of paper PMC10307832:

Experiments:
Experiment in all cases: relative viability (nuclei count vs DMSO), 5 days (fraction); higher = more cells survive
[1] = compound: C1=CC2=NC=CN=C2C=C1/C=C/3\C(=O)NC(=O)S3 + O=C(CCCCCCC(=O)Nc1ccccc1)NO [Vorinostat] (partner 1 µM)
Procedure, shortened: (§1)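 Five library-drug doses in √10 steps were combined with a fixed anchor-drug dose, or a single drug was given alone, by pin tool to lung cancer cell lines in 1536-well plates the day after seeding. Nuclei were stained and counted after 5 days. Relative viability is the nuclei count in treated wells over that in vehicle wells, taken as the median of duplicate plates.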

BGJ398 + Dasatinib = compound: CCN1CCN(c2ccc(Nc3cc(N(C)C(=O)Nc4c(Cl)c(OC)cc(OC)c4Cl)ncn3)cc2)CC1 [BGJ398] + Cc1nc(Nc2ncc(C(=O)Nc3c(C)cccc3Cl)s2)cc(N2CCN(CCO)CC2)n1 [Dasatinib] (partner 0.075 µM)
Procedure, shortened: as §1

BGJ398 + Decitabine = compound: CCN1CCN(c2ccc(Nc3cc(N(C)C(=O)Nc4c(Cl)c(OC)cc(OC)c4Cl)ncn3)cc2)CC1 [BGJ398] + Nc1ncn([C@H]2C[C@H](O)[C@@H](CO)O2)c(=O)n1 [Decitabine] (partner 2 µM)
Procedure, shortened: as §1

BGJ398 + Vorinostat = compound: CCN1CCN(c2ccc(Nc3cc(N(C)C(=O)Nc4c(Cl)c(OC)cc(OC)c4Cl)ncn3)cc2)CC1 [BGJ398] + O=C(CCCCCCC(=O)Nc1ccccc1)NO [Vorinostat] (partner 1 µM)
Procedure, shortened: as §1

Cell Line	relative viability ([1]; first compound 0.02 µM)	relative viability ([1]; first compound 0.06325 µM)	relative viability ([1]; first compound 0.2 µM)	relative viability ([1]; first compound 0.6325 µM)	relative viability ([1]; first compound 2 µM)	relative viability (BGJ398 + Dasatinib; first compound 0.01 µM)	relative viability (BGJ398 + Dasatinib; first compound 0.03162 µM)	relative viability (BGJ398 + Dasatinib; first compound 0.1 µM)	relative viability (BGJ398 + Dasatinib; first compound 0.3162 µM)	relative viability (BGJ398 + Dasatinib; first compound 1 µM)	relative viability (BGJ398 + Decitabine; first compound 0.01 µM)	relative viability (BGJ398 + Decitabine; first compound 0.03162 µM)	relative viability (BGJ398 + Decitabine; first compound 0.1 µM)	relative viability (BGJ398 + Decitabine; first compound 0.3162 µM)	relative viability (BGJ398 + Decitabine; first compound 1 µM)	relative viability (BGJ398 + Vorinostat; first compound 0.01 µM)	relative viability (BGJ398 + Vorinostat; first compound 0.03162 µM)	relative viability (BGJ398 + Vorinostat; first compound 0.1 µM)	relative viability (BGJ398 + Vorinostat; first compound 0.3162 µM)	relative viability (BGJ398 + Vorinostat; first compound 1 µM)
HOP-62	0.571	0.694	0.732	0.581	0.571	0.745	0.656	0.678	0.733	0.57	0.232	0.245	0.204	0.225	0.215	0.694	0.618	0.626	0.575	0.602
LOU-NH91	0.965	0.887	0.987	0.908	0.727	0.522		0.59	0.459	0.522	0.837	0.676	0.813	0.649	0.821	0.896	0.896	0.957	0.748	0.883
ChaGo-K-1	0.742	0.544	0.756	0.662	0.652	0.598	0.582	0.613	0.545	0.627	0.503	0.477	0.562	0.558	0.537	0.67	0.775	0.706	0.802	0.794
PC-14	0.799	0.713	1.01	0.689	0.571	0.294	0.0382	0.234	0.141	0.317	0.179	0.148	0.252	0.193	0.135	0.722	0.121	0.818		0.78
NCI-H1437	0.728	0.874	0.815	0.811	0.815	0.484	0.444	0.373	0.42	0.424	0.59	0.532	0.606	0.598	0.515	0.954	0.887	0.794	0.784	0.821
NCI-H460	0.657	0.668	0.759	0.716	0.819	0.479	0.523	0.46	0.522	0.498	0.418	0.515	0.592	0.53	0.438	0.737	0.706	1.18	0.809	0.67
NCI-H1666	0.912	0.927	0.968	0.984	0.785	0.764	0.802	0.911	0.759	0.697	0.634	0.763	0.814	0.68	0.506	1.06	0.963	1.05	0.986	0.916
NCI-H1651	0.504	0.502	0.6	0.588	0.483	0.48	0.416	0.482	0.256	0.333	0.463	0.604	0.664	0.602	0.458	0.473	0.544	0.554	0.579	0.405
NCI-H1755	0.681	0.695	0.832	0.858	0.818	0.406	0.464	0.45	0.411	0.313	0.675	0.738	0.721	0.686	0.634	0.714	0.746	0.827	0.733	0.72
NCI-H661	0.75	0.86	0.845	0.799	0.948	0.835	0.854	0.897	0.79	0.746	0.51	0.491	0.61	0.55	0.529	0.774	0.796	0.806	0.731	0.801
HARA	0.548	0.463	0.522	0.487	0.406	0.26	0.196	0.227	0.232	0.151	0.587	0.412	0.389	0.371	0.38	0.63	0.51	0.669	0.598	0.593
NCI-H596	0.581	0.59	0.646	0.499	0.6	0.515	0.49	0.576	0.506	0.474	1.15	0.885	0.977	0.991	0.778	0.612	0.619	0.674	0.508	0.528
NCI-H23	0.508	0.588	0.697	0.546	0.385	0.776	0.834	0.844	0.792	0.748	0.303	0.375	0.279	0.271	0.325	0.611	0.668	0.722	0.53	0.557
LCLC-97TM1	0.617	0.637	0.659	0.576	0.153	0.671	0.92	0.773	0.646	0.921	0.238	0.222	0.214	0.216	0.225	0.533	0.691	0.743	0.781	0.753
EPLC-272H	0.385	0.411	0.562	0.413	0.524	0.44	0.303	0.286	0.321	0.32	0.391	0.3	0.38	0.303	0.323	0.531	0.395	0.261	0.5	0.578
NCI-H522	0.768	0.839	1.22	0.75	0.795	0.641	0.837	0.785	0.779	0.76	0.665	0.625	0.685	0.665	0.644	0.926	0.802	0.935	1.01	0.888
NCI-H1915	0.578	0.525	0.636	0.468	0.499	0.308	0.306	0.309	0.295	0.261	0.271	0.248	0.28	0.281	0.241	0.466	0.515	0.597	0.54	0.486
NCI-H2405	1.04	1.14	1.11	1.08	0.526	0.213	0.236	0.233	0.225	0.192	0.703	0.74	0.81	0.734	0.741	1.13	1.04	0.919	0.938	1.01
NCI-H322M	0.893	0.852	0.905	0.891	0.744	0.268	0.227	0.227	0.262	0.236	0.755	0.723	0.771	0.602	0.833	1.04	0.853	0.942	0.892	0.876
NCI-H2170	0.732	0.583	0.846	0.776	0.878	0.527	0.427	0.562	0.545	0.558	0.434	0.453	0.466	0.456	0.499	0.823	0.814	0.847	0.821	0.861
SW 900	0.544	0.517	0.453		0.647	0.448	0.388	0.352	0.383	0.232	0.447	0.421	0.371	0.469	0.43	0.534	0.425	0.562	0.261	0.24
NCI-H1395	1	0.733	0.824	0.77	0.668	0.41	0.397	0.363	0.379	0.313	0.684	0.692	0.609	0.648	0.649	0.754	0.683	0.534	0.469	0.495
NCI-H358	0.674	0.714	0.725	0.659	0.579	0.145	0.154	0.135	0.169	0.205	0.184	0.215	0.208	0.201	0.2	0.614	0.769	0.704	0.635	0.824
NCI-H838	0.674	0.702	0.762	0.686	0.579	0.278	0.337	0.28	0.257	0.225	0.389	0.463	0.552	0.463	0.378	0.664	0.697	0.695	0.633	0.629
